Source: patent publication US9206212B2, “Actinomycete strain composition and its use” (CENTRE NATIONAL DE LA RECHERCHE SCIENTIFIQUE, priority 2011, dated 2015)
Where a SMILES comes first, the peptide text is derived from it. Bridges are numbered along the chain shown (N, C = ends). [ ]: non-standard residue; d: D form. The star is where a group is joined. Ileψ(thiazoline)Cys = CC[C@H](C)[C@H](N)C1=N[C@H](C(=O)*)CS1; dOrn = NCCC[C@@H](N)C(=O)O

Tests used:
Streptomyces sp. BG76 = assay: Antibiotic sensibility of the strain; type: cell-based; set-up: key to Antibiotic sensibility: S: sensitive; R: resistant; settings: for Antibiotic sensibility: amount given with each antibiotic (30 μg, 300 U, 10 μg, 10 U, 250 μg)
[1] = tested on: Micrococcus luteus ATCC 381 (ML); assay: Antimicrobial bioassay, paper filter disk technique (agar diffusion); type: cell-based
Description: (§1) The retention time of the main peaks D1 and D2 were 15.62 and 17.99 min, respectively. These fractions were checked again for both activities with mineral phosphate solubilization test and anti microbial bioassay, against ML, BS, PU and MR using the paper filter disk technique.
(§2) The purified Viridomycin (compound 1) was checked for anti microbial bioassay, against Micrococcus luteus ATCC 381 (ML), Bacillus subtilis ATCC 9524 (BS) and the phytopathogenic fungi Pythium ultimum (PU) and Mucor ramannianus NRRL 1829 (MR) using the paper filter disk technique.

[2] = tested on: Mucor ramannianus NRRL 1829 (MR); assay: as above; type: cell-based
Description: as §1, §2

[3] = tested on: Bacillus subtilis ATCC 9524 (BS); assay: as above; type: cell-based
Description: as §1, §2

Pythium ultimum (PU) = assay: as above; type: cell-based
Description: as §1, §2

[4] = Solubility of the antibiotic; type: physicochemical; settings: methanol and water
[5] = Mineral phosphate solubilization test
[6] = Mineral phosphate solubilization test; remark: listed apart in the source
[7] = filter disc i.d. 6 mm, c = 20 μg/mL, 20 μL/disc
[8] = HPLC peak of fraction D, FIG. 4
[9] = purified Compound 1 at final concentration 98.5 mg·mL^−1

Polymyxin B
Sensitivity of the strain to the antibiotic (in words) (Streptomyces sp. BG76): sensitive | Antibiotic sensibility (Streptomyces sp. BG76): S

CC[C@H](C)[C@H](N)C1=N[C@H](C(=O)N[C@@H](CC(C)C)C(=O)N[C@H](CCC(=O)O)C(=O)N[C@H](C(=O)N[C@H]2CCCCNC(=O)[C@H](CC(N)=O)NC(=O)[C@@H](CC(=O)O)NC(=O)[C@H](Cc3cnc[nH]3)NC(=O)[C@@H](Cc3ccccc3)NC(=O)[C@H]([C@@H](C)CC)NC(=O)[C@@H](CCCN)NC2=O)[C@@H](C)CC)CS1 [Bacitracine] ({Ileψ(thiazoline)Cys}-L[dE]IK[dOrn]I[dF]H[dD]N; lactam 4-C)
Sensitivity of the strain to the antibiotic (in words) (Streptomyces sp. BG76): sensitive | Antibiotic sensibility (Streptomyces sp. BG76): S

NS(N)(=O)=O [Sulfamides]
Sensitivity of the strain to the antibiotic (in words) (Streptomyces sp. BG76): resistant | Antibiotic sensibility (Streptomyces sp. BG76): R

CC(=O)OCC1=C(C(=O)O)N2C(=O)[C@@H](NC(=O)Cc3cccs3)[C@H]2SC1 [Cefalotin]
Sensitivity of the strain to the antibiotic (in words) (Streptomyces sp. BG76): sensitive | Antibiotic sensibility (Streptomyces sp. BG76): S

CO[C@@H]1[C@@H](OC(N)=O)[C@@H](O)[C@H](Oc2ccc3c(O)c(NC(=O)c4ccc(O)c(CC=C(C)C)c4)c(=O)oc3c2C)OC1(C)C [Novobiocine]
Sensitivity of the strain to the antibiotic (in words) (Streptomyces sp. BG76): sensitive | Antibiotic sensibility (Streptomyces sp. BG76): S

Tris (3-imino-4-oxo-cyclohexa-1,5-diene-carbaldehydro) iron (III) [Compound 1]
Diameter of microbial growth inhibition zone [1, 7]: 45 mm | Antimicrobial activity (in words) ([1]; on the standard media): inhibited | Diameter of microbial growth inhibition zone [2, 7]: 38 mm | Antimicrobial activity (in words) ([2]; on the standard media): inhibited | Diameter of microbial growth inhibition zone [3, 7]: 29 mm | Antimicrobial activity (in words) ([3]; on the standard media): inhibited | Diameter of microbial growth inhibition zone (Pythium ultimum (PU); [7]): 27 mm | Antimicrobial activity (in words) (Pythium ultimum (PU); on the standard media): inhibited | Solubility [4]: soluble in methanol and water | Mineral phosphate solubilization activity (in words) [5, 8]: mineral phosphate solubilization activities | Concentration of solubilized Phosphate from TC [5, 9]: 135.2 µg/mL | Mineral phosphate solubilization activity (in words) [6, 8]: mineral phosphate solubilization activities | Concentration of solubilized Phosphate from RP [6, 9]: 63.7 µg/mL

Gentamycine
Sensitivity of the strain to the antibiotic (in words) (Streptomyces sp. BG76): sensitive | Antibiotic sensibility (Streptomyces sp. BG76): S
